Patent US20140088006A1, “Stem Cell Mobilization and Tissue Repair and Regeneration” (Wellstat Therapeutics Corporation, priority 2011, published 2014)
Values joined by “and” are separate entries in the source; they are usually repeats but may differ in a detail not shown here. Equal values may be shown once. No end group written: not given here.

Columns and labels:
[1] = system: hematopoietic stem cells (HSC) and their hematopoietic progenitors (HPC); test: CFU-GM / CFU-GEMM colony assay of peripheral blood mononuclear cells after single subcutaneous injection; type: in vivo, C57Bl6 mice
Protocol: C57Bl6 male mice, from 8 weeks to 4 month of age, from Harlan were used. Mice received subcutaneous injections of saline, Compound X (50 μg/kg) or Compound X (250 μg/kg). After 1 and 4 hours, mice were anesthetized and blood was collected through the orbital sinus with heparinized capillary tubes. 20 μl of blood was removed from each tube for WBC counts;
Remaining blood from each group was pooled and mononuclear cells were isolated by density gradient separation. To enumerate HSC and HPC in peripheral blood cells were washed, counted plated in semi-solid Methylcellulose MC3434 (Stem cell technology) at 100,000 per dish (5 dishes/group) and placed in CO2 incubator at 37° C. Colony-forming unit-granulocyte erythroid macrophage megakaryocyte (CFU-GEMM) and Colony-forming unit-granulocyte macrophage (CFU-GM) were detected under inverted microscope 7 and 10 days after.
In this experiment, C57Bl6 mice received subcutaneous injections of PBS, Compound X (250 μg/kg) or AMD3100 (5 mg/kg). After 1 hr blood was collected through the orbital sinus with heparinized capillary tubes. Blood from each group was pooled, counted and mononuclear cells were isolated by density gradient separation. Cells were washed, counted and plated at 100,000 per dish (5 dishes/group) for CFU-GEMM and CFU-GM colonies. CFU-GEMM colonies were scored on day 14, while CFU-GM colonies on day 7 after plating in MC3434 (Stem cell Technology).

[2] = system: CFU-GEMM / CFU-GM progenitor cells; test: CFU colony assay of peripheral blood after 4 daily subcutaneous injections; type: in vivo, C57Bl/6 male mice; details: for CFU-GEMM number, AVG / CFU-GEMM number: 1 hr after injection; for CFU-GEMM number: individual dishes
Protocol: This example is based on a protocol for a 4-day course of once-daily Compound X injections into C57Bl/6 male mice similar to G-CSF. Two effective dose levels of Compound X were found previously to mobilize HSC 1 hr after single injection and were selected for this experiment. Four-month old C57Bl/6 male mice (Jackson Laboratories) were subcutaneously injected with 0.9% saline, 125 μg/kg Compound X or 250 μg/kg Compound X on days 1, 2, 3 and 4 as described in Table 4. Each day, one-hour post injections, peripheral blood from 3 mice per group was harvested from the orbital plexus into EDTA-containing tubes. On day 4, a femur and spleen were also removed from mice to assess by FACS whether any toxicity aroused from repeated injections of Compound X.
As in the previous example to determine mobilization of colony-forming cells out of the bone marrow, mononuclear cells from peripheral blood were plated into MethoCult 3434 media (Stem Cell Technologies). Briefly, after white blood cell counting, the remaining peripheral blood was diluted (1:1, v/v) with 0.9% saline (APP Pharmaceutical) and layered (2:1, v/v) onto 1-Step™1.077 A (Accurate Chemicals) in 15-ml centrifuge tubes. Cells were centrifuged at 600×g for 20 min at room temperature. The mononuclear cells were harvested from the interface between the plasma layer and the 1-Step™ A solution using a 1-ml syringe and blunt-end needle. The cells were transferred to 15-ml centrifuge tubes and washed twice in 1×PBS. Cells were resuspended in 1 ml of IMDM and cell counts were obtained using the Coulter counter. Cells were placed into 35-mm Petri dishes at 200,000 cells per dish with 5 dishes per group. Cells incubated for 10 days in a 37° C. and 5% CO2 humidified incubator. CFU colonies were then scored using an inverted microscope—CFU-GM detected on day 7 and CFU-GEMM—on day 10. Data presented in Tables 7, 8 and 9, FIGS. 3 and 4.

[3] = system: white blood cells in peripheral blood; test: White blood cell count after 4 daily injections of G-CSF and Compound X; type: in vivo, mice; details: 5 μg/mouse each agent s.c. daily for 4 days, pooled blood
Protocol: Compound X and Neupogen (rG-CSF Amgen, lot# P043601) were diluted in PBS. Mice received subcutaneous injections of PBS, Compound X (5 μg/mouse), G-CSF (5 μg/mouse) or Compound X (5 μg/mouse)+G-CSF (5 μg/mouse) for four consecutive days. On the last day of injections, 1 hour post injections, blood was collected through the orbital sinus with heparinized capillary tubes. Blood was pooled from 3 mice/group and white blood cell counts were obtained. Mononuclear cells were isolated by density gradient separation from pooled blood. Cells were washed, counted and plated at 100,000 per dish (5 dishes/group) for CFU-mix and CFU-GM colonies. Blood was also collected and processed on day 8 for colony assay. Results are shown in Tables 10, 11, and 12 and in FIG. 5.

[4] = s.c. 250 μg/kg, 1 hour, individual dishes

## FPHFDLSHGSAQV [Compound X, tridecapeptide that acts on stem cells]
[1]; 1 hr after s.c. injection
  increase in number of HSC HPC in blood: up to 5 times
[1]; doses tested from 5 μg/kg up to 5 mg
  doses with mobilizing activity: 0.125 to 0.5 mg/kg
[1]; s.c. 250 μg/kg, 1 hour
  CFU-GEMM, MEAN: 3.8 per 100,000 cells
  CFU-GM (day 7), MEAN: 4 per 100,000 cells
[1]; [4]
  CFU-GEMM: 6 per 100,000 cells and 3 per 100,000 cells (3×) and 4 per 100,000 cells
  CFU-GM (day 7): 3 per 100,000 cells (2×) and 6 per 100,000 cells and 4 per 100,000 cells (2×)
[1]; s.c. 250 μg/kg, 1 hr
  number of white blood cells and CFU-GM in peripheral blood: did not change
[1]; s.c. 250 μg/kg, 1 hr, vs PBS
  increase of CFU-GEMM number in peripheral blood: 3.8 times
[1]; single s.c. 50 μg/kg, 1 hour
  CFU-GM + CFU-GEMM, MEAN: 5 per 100000 cells
[1]; single s.c. 50 μg/kg, 1 hour, individual dishes
  CFU-GM + CFU-GEMM: 5 per 100000 cells and 6 per 100000 cells and 4 per 100000 cells and 3 per 100000 cells and 7 per 100000 cells
[1]; single s.c. 50 μg/kg, 4 hour
  CFU-GM + CFU-GEMM, MEAN: 0.6 per 100000 cells
[1]; single s.c. 50 μg/kg, 4 hour, individual dishes
  CFU-GM + CFU-GEMM: 1 per 100000 cells (3×) and 0 per 100000 cells (2×)
[1]; single s.c. 250 μg/kg, 1 hour
  CFU-GM + CFU-GEMM, MEAN: 25 per 100000 cells
[1]; single s.c. 250 μg/kg, 1 hour, individual dishes
  CFU-GM + CFU-GEMM: 24 per 100000 cells (2×) and 20 per 100000 cells and 28 per 100000 cells and 29 per 100000 cells
[1]; single s.c. 250 μg/kg, 4 hour
  CFU-GM + CFU-GEMM, MEAN: 1.4 per 100000 cells
[1]; single s.c. 250 μg/kg, 4 hour, individual dishes
  CFU-GM + CFU-GEMM: 1 per 100000 cells (4×) and 3 per 100000 cells
[1]; within 1 hr after injection, from approximately 100 HSC under homeostatic conditions
  stem cell number (HSC) in circulation: 300-400 HSC
[2]; 125 μg/kg s.c. daily, Day 1
  CFU-GEMM number, AVG: 2.4 per 100000 mononuclear cells
  CFU-GEMM number: 2 per 100000 mononuclear cells (4×) and 4 per 100000 mononuclear cells
[2]; 125 μg/kg s.c. daily, Day 2
  CFU-GEMM number, AVG: 2.8 per 100000 mononuclear cells
  CFU-GEMM number: 5 per 100000 mononuclear cells and 3 per 100000 mononuclear cells (2×) and 1 per 100000 mononuclear cells and 2 per 100000 mononuclear cells
[2]; 125 μg/kg s.c. daily, Day 3
  CFU-GEMM number, AVG: 0.4 per 100000 mononuclear cells
  CFU-GEMM number: 1 per 100000 mononuclear cells (2×) and 0 per 100000 mononuclear cells (3×)
[2]; 125 μg/kg s.c. daily, Day 4
  CFU-GEMM number, AVG: 0.8 per 100000 mononuclear cells
  CFU-GEMM number: 0 per 100000 mononuclear cells (2×) and 2 per 100000 mononuclear cells and 1 per 100000 mononuclear cells (2×)
[2]; 250 μg/kg over 4 days, all days
  increase in multilineage CFU-GEMM colonies vs saline: ≥ 2 fold
[2]; 250 μg/kg s.c. daily, Day 1
  CFU-GEMM number, AVG: 2.6 per 100000 mononuclear cells
  CFU-GEMM number: 4 per 100000 mononuclear cells (2×) and 1 per 100000 mononuclear cells and 2 per 100000 mononuclear cells (2×)
[2]; 250 μg/kg s.c. daily, Day 2
  CFU-GEMM number, AVG: 3.6 per 100000 mononuclear cells
  CFU-GEMM number: 2 per 100000 mononuclear cells and 6 per 100000 mononuclear cells (2×) and 3 per 100000 mononuclear cells and 1 per 100000 mononuclear cells
[2]; 250 μg/kg s.c. daily, Day 3
  CFU-GEMM number, AVG: 2.8 per 100000 mononuclear cells
  CFU-GEMM number: 2 per 100000 mononuclear cells (2×) and 4 per 100000 mononuclear cells and 3 per 100000 mononuclear cells (2×)
[2]; 250 μg/kg s.c. daily, Day 4
  CFU-GEMM number, AVG: 4 per 100000 mononuclear cells
  CFU-GEMM number: 4 per 100000 mononuclear cells (3×) and 3 per 100000 mononuclear cells and 5 per 100000 mononuclear cells
[2]; 250 μg/kg, day 3
  increase in CFU-GEMM vs saline: 4.7 fold
[2]; s.c. daily for 4 days
  mobilization of granulocytic and macrophage precursors CFU-GM: did not affect mobilization
[3]; Day 4, 1 hour post injection
  White Blood Cell counts: Cell Count: 7.3 ×10^6
[3]; Day 8
  White Blood Cell counts: Cell Count: 6.1 ×10^6
